Reference: paper PMC10716780, “The multistep oxidation of cholesterol to pregnenolone by human cytochrome P450 11A1 is highly processive” (The Journal of Biological Chemistry, 2023)

Target: T1, human P450 11A1 (Homo sapiens, UniProt P05108)
T1 sequence (P05108 41-521 limits assumed): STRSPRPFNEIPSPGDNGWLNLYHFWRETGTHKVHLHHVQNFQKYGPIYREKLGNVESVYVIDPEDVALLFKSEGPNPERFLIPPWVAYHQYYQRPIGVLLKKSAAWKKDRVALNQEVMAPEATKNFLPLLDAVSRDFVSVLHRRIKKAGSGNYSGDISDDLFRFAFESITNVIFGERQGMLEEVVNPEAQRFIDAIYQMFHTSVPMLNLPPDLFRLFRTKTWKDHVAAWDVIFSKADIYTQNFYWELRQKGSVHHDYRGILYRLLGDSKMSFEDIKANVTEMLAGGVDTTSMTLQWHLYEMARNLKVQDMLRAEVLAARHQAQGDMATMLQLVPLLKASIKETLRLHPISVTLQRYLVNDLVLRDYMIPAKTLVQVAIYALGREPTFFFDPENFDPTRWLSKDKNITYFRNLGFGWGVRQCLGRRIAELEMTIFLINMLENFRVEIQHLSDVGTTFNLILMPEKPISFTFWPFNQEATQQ
T1 sequence (P00257 59-186 partner): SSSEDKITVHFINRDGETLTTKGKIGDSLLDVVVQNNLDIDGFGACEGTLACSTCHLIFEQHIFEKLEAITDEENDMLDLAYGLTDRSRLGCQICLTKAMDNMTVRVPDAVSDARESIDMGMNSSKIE
Assay: Single-turnover kinetics of P450 11A1 with [1,2-3H]-cholesterol (radio-HPLC)
Type: biochemical
Set-up: M A S T R S P R P F N E I P S P G D N; Met-Ala (N-terminal start residues in place of the transit peptide and Ile40) (N); made in house; host or cells: E. coli (P450 11A1 in C41(DE3); Adx and AdR in E. coli)
Description: In this reaction, a 5 μM complex of P450 11A1 and 4.5 μM cholesterol was assembled, and Adx was added at either equimolar (low, 5 μM) or 10-fold excess (high, 50 μM) concentrations (along with 10 μM AdR). The complex was diluted 2-fold (with 5 mM NADPH) in the apparatus to initiate the reaction, which was quenched at variable times. The products of the reaction were extracted and quantified by radio-HPLC. […] (The analysis of kinetic modeling is described below.)
P450 11A1 (5 μM) was reconstituted with its redox partners AdR (10 μM) and Adx (5 μM) on ice (10 min) prior to dilution in potassium Hepes buffer (50 mM, pH 7.4) and H2O and the addition of ^3H-cholesterol substrate (4.5 μM, 0.5 Ci/mmol). The concentration of substrate was deliberately kept slightly below the enzyme concentration to ensure that single-turnover conditions were strictly followed. The mixture (0.75 ml) was preincubated (37 °C, 5 min) in a shaking water bath prior to initiation with an equal volume of NADPH solution (5 mM, from a 10 mM stock in 50 mM potassium Hepes buffer, pH 7.4), thus reducing the concentrations of all enzymes and substrate to one-half their starting concentrations. After completing the desired incubation time, an aliquot (200 μl) was removed from the incubation and added to vials containing aqueous HCl (800 μl, 1 M). The quenched reactions were mixed with a vortex device and placed on ice. When the time course was complete, the quenched reactions were mixed with CH2Cl2 (5 ml) to extract reaction products and were centrifuged (10^3g, 5 min, 23 °C) to separate layers, and the organic (bottom) layers were transferred (4 ml) to fresh glass vials. The extraction process was repeated and the two extracts (2 × 4 ml) from each sample were combined to maximize product recovery. Samples (8 ml) were brought to dryness under a stream of nitrogen, and the dried residues were dissolved in CH3OH (75 μl) and transferred to autosampler vials for analysis by radio-HPLC.
Enzyme and NADPH solutions were prepared as described for the benchtop experiments (above) but with the modification that the concentration of Adx was increased to 50 μM (from 5 μM). […] The rapid quench-flow is a rapid mixing device that combines equal volumes (∼19 μl) of two solutions (P450 and NADPH, held at 37 °C) into a central internal chamber to initiate a reaction. After the preset reaction time is completed, the mixture (∼38 μl) is then rapidly combined with a quench solution (1 M HCl, ∼160 μl), expelled from the apparatus, and collected in vials. Utilizing this experimental design, the reaction of enzyme-substrate complex (P450 11A1-Adx-AdR and ^3H-cholesterol) was initiated with NADPH on a variable timescale (0–90 s), pooling five replicates of each time point to maximize sensitivity. The products of each quenched reaction (∼1 ml) were extracted with two volumes (5 ml) of CH2Cl2, brought to dryness, and dissolved in CH3OH as described for the benchtop experiments.
Samples (held at 4 °C) were injected (50 μl) using a Agilent 1100 Series HPLC system on a NovaPak (Waters) octadecylsilane (C18) 3.9 mm × 100 mm (4 μm) column (held at 25 °C) with a flow rate of 1.0 ml min^−1 using a gradient mobile phase of (A) H2O and (B) CH3CN as follows (all in % B, v/v): 0 min, 70%; 10 min, 100%; 35.5 min, 100%; 37 min, 30%; and 40 min, 70%).

## CC(C)CCC[C@@H](C)[C@H]1CC[C@H]2[C@@H]3CC=C4C[C@@H](O)CC[C@]4(C)[C@H]3CC[C@]12C [Cholesterol]
5 μM Adx
  time to complete reaction, low Adx: 3 min
50 μM Adx
  time to complete reaction, excess Adx: 1 min
10-fold (50 μM) excess Adx
  first-order decay, rate of 22R-hydroxylation (k2), single exponential fit: 0.09 s⁻¹
10-fold excess (high) Adx, time 0 s
  concentration in single-turnover reaction: 4.5 µM
10-fold excess (high) Adx, time 0.25 s
  concentration in single-turnover reaction: 4.334 µM
10-fold excess (high) Adx, time 0.5 s
  concentration in single-turnover reaction: 4.022 µM
10-fold excess (high) Adx, time 0.75 s
  concentration in single-turnover reaction: 3.865 µM
10-fold excess (high) Adx, time 1 s
  concentration in single-turnover reaction: 3.748 µM
10-fold excess (high) Adx, time 2 s
  concentration in single-turnover reaction: 3.432 µM
10-fold excess (high) Adx, time 2.5 s
  concentration in single-turnover reaction: 3.365 µM
10-fold excess (high) Adx, time 3.5 s
  concentration in single-turnover reaction: 3.113 µM
10-fold excess (high) Adx, time 5 s
  concentration in single-turnover reaction: 2.84 µM
10-fold excess (high) Adx, time 6 s
  concentration in single-turnover reaction: 2.762 µM
10-fold excess (high) Adx, time 7.5 s
  concentration in single-turnover reaction: 2.508 µM
10-fold excess (high) Adx, time 10 s
  concentration in single-turnover reaction: 1.814 µM
10-fold excess (high) Adx, time 15 s
  concentration in single-turnover reaction: 1.24 µM
10-fold excess (high) Adx, time 20 s
  concentration in single-turnover reaction: 0.9421 µM
10-fold excess (high) Adx, time 30 s
  concentration in single-turnover reaction: 0.6054 µM
10-fold excess (high) Adx, time 45 s
  concentration in single-turnover reaction: 0.4283 µM
10-fold excess (high) Adx, time 60 s
  concentration in single-turnover reaction: 0.3162 µM
10-fold excess (high) Adx, time 90 s
  concentration in single-turnover reaction: 0.26 µM
Second table, headed 10-fold excess (high) Adx, time 0 s
  concentration in single-turnover reaction: 4.5 µM
Second table, headed 10-fold excess (high) Adx, time 10 s
  concentration in single-turnover reaction: 2.794 µM
Second table, headed 10-fold excess (high) Adx, time 25 s
  concentration in single-turnover reaction: 1.649 µM
Second table, headed 10-fold excess (high) Adx, time 50 s
  concentration in single-turnover reaction: 0.7284 µM
Second table, headed 10-fold excess (high) Adx, time 75 s
  concentration in single-turnover reaction: 0.3322 µM
Second table, headed 10-fold excess (high) Adx, time 100 s
  concentration in single-turnover reaction: 0.1591 µM
Second table, headed 10-fold excess (high) Adx, time 200 s
  concentration in single-turnover reaction: 0 µM
Second table, headed 10-fold excess (high) Adx, time 500 s
  concentration in single-turnover reaction: 0 µM
